{"source": "paper PMC10924921", "about": "“Mi-2β promotes immune evasion in melanoma by activating EZH2 methylation” (Nature Communications, 2024)", "assay_in_all_cases": "biochemical", "set-up_in_all_cases": "KINOMEscan active-site competition binding panel (468 kinase assays), per cent of control at 1000 nM", "settings_in_all_cases": "KINOMEscan per cent of control (binding competition); read-out: Percent Control", "key": {"CLK2": {"biological_target": "CLK2 (Homo sapiens, UniProt P49760)", "sequence (P49760 whole entry)": "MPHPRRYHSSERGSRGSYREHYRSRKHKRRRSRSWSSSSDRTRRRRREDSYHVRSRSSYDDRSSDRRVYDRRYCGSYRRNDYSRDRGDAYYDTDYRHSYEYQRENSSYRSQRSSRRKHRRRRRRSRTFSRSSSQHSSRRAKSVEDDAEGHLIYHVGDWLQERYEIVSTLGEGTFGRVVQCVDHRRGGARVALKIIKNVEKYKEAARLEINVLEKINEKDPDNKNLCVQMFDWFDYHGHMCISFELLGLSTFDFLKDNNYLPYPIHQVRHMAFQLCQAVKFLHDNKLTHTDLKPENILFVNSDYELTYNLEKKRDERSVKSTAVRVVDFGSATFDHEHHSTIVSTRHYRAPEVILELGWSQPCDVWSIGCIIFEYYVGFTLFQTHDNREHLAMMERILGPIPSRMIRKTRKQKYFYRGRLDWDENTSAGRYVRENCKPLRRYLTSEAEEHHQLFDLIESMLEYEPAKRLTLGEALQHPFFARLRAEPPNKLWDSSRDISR", "source_text": "(§1) Figure S7 / Percent Control"}, "DRAK2": {"biological_target": "T1, DRAK2 (Homo sapiens, UniProt O94768)", "T1 construct": "gene STK17B", "source_text": "as §1"}, "EGFR(L858R)": {"biological_target": "EGFR(L858R) (Homo sapiens, UniProt P00533, L858R)", "sequence (P00533 whole entry L858R)": "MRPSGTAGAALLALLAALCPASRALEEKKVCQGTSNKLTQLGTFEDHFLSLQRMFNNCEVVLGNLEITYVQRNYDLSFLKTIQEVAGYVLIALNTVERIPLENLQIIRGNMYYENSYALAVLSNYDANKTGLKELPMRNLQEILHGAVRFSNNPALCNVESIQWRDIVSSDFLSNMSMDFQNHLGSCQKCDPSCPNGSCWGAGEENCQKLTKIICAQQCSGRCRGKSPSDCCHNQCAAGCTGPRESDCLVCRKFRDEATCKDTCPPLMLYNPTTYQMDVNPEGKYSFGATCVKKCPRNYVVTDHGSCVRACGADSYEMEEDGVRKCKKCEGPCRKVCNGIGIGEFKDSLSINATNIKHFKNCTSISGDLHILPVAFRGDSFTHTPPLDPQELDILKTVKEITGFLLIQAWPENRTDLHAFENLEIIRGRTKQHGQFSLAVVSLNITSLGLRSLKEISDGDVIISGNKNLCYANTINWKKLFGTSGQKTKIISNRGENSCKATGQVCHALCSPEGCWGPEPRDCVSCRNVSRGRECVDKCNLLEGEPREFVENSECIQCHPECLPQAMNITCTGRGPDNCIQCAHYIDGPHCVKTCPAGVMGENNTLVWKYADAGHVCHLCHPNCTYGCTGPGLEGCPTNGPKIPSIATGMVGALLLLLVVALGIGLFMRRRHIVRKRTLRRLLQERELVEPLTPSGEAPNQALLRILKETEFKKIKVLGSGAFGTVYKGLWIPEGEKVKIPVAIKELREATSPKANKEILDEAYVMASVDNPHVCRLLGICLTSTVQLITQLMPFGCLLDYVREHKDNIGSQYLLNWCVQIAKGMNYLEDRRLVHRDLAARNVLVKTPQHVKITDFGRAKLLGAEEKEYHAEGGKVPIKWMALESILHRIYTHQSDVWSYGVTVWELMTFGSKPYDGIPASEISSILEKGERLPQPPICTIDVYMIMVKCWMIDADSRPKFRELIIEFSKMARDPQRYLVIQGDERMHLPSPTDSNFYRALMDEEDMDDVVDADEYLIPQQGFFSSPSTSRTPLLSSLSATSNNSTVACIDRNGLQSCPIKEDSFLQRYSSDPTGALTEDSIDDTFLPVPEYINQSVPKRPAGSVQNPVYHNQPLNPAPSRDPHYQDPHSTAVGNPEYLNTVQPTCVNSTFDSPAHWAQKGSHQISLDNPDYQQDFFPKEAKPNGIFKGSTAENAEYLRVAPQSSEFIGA", "source_text": "as §1"}, "ERBB3": {"biological_target": "ERBB3 (Homo sapiens, UniProt P21860)", "source_text": "as §1"}, "ERK3": {"biological_target": "T2, ERK3 (Homo sapiens, UniProt Q16659)", "T2 construct": "gene MAPK6", "source_text": "as §1"}, "HIPK1": {"biological_target": "HIPK1 (Homo sapiens, UniProt Q86Z02)", "sequence (Q86Z02 whole entry)": "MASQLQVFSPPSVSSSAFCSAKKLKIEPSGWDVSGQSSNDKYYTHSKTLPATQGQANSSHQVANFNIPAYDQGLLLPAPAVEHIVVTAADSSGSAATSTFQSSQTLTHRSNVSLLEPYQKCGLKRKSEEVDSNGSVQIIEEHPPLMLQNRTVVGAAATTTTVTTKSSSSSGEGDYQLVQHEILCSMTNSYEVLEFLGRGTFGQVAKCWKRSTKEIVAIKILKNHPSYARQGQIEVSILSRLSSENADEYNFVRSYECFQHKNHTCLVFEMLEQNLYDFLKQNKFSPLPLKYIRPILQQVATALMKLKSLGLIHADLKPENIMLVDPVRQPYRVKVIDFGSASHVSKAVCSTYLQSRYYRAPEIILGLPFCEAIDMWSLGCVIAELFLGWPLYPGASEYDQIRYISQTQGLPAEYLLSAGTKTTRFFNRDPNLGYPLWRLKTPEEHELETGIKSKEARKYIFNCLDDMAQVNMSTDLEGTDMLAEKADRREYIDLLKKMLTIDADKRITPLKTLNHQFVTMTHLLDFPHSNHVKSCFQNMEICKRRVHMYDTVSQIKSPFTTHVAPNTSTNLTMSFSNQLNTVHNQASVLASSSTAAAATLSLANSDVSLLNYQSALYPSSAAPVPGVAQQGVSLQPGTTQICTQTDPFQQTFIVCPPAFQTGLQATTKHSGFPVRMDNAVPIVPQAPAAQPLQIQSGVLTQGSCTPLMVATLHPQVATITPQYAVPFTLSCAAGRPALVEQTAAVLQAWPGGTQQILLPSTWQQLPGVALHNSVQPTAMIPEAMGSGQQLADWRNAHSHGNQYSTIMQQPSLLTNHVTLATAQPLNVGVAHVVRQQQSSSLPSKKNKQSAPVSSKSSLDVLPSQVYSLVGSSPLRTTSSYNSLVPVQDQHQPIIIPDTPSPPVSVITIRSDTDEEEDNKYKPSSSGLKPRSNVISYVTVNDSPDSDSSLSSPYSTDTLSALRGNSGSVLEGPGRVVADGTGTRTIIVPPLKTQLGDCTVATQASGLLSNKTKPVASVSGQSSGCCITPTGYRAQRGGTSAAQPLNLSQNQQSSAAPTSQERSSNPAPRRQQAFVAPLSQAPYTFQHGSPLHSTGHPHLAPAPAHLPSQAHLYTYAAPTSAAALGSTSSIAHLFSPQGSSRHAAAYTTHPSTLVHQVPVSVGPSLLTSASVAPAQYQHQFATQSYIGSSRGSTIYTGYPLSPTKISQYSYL", "source_text": "as §1"}, "KIT(D816H)": {"biological_target": "KIT(D816H) (Homo sapiens, UniProt P10721, D816H)", "source_text": "as §1"}, "LZK": {"biological_target": "T3, LZK (Homo sapiens, UniProt O43283)", "T3 construct": "gene MAP3K13", "source_text": "as §1"}, "MAP4K4": {"biological_target": "MAP4K4 (Homo sapiens, UniProt O95819)", "source_text": "as §1"}, "MARK2": {"biological_target": "MARK2 (Homo sapiens, UniProt Q7KZI7)", "source_text": "as §1"}, "MEK2": {"biological_target": "T4, MEK2 (Homo sapiens, UniProt P36507)", "T4 construct": "gene MAP2K2", "source_text": "as §1"}, "NDR1": {"biological_target": "T5, NDR1 (Homo sapiens, UniProt Q15208)", "T5 construct": "gene STK38", "source_text": "as §1"}, "NDR2": {"biological_target": "T6, NDR2 (Homo sapiens, UniProt Q9Y2H1)", "T6 construct": "gene STK38L", "source_text": "as §1"}, "NEK11": {"biological_target": "NEK11 (Homo sapiens, UniProt Q8NG66)", "sequence (Q8NG66 whole entry)": "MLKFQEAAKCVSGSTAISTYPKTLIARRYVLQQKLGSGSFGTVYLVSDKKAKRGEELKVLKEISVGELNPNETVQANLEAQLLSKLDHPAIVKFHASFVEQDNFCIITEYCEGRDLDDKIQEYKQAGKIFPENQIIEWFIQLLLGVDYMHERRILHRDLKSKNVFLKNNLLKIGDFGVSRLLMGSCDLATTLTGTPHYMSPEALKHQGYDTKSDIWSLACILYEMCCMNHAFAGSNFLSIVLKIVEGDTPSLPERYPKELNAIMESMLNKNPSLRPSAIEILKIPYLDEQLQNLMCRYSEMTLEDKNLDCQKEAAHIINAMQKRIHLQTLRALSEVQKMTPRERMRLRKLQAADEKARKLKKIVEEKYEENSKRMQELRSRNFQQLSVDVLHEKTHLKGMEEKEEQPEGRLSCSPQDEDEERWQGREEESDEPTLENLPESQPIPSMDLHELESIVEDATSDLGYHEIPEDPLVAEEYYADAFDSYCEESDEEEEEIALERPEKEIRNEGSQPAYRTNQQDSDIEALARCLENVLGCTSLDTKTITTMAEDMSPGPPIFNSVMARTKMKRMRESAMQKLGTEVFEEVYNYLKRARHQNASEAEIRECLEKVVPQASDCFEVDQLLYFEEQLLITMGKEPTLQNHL", "source_text": "as §1"}, "NEK3": {"biological_target": "NEK3 (Homo sapiens, UniProt P51956)", "sequence (P51956 whole entry)": "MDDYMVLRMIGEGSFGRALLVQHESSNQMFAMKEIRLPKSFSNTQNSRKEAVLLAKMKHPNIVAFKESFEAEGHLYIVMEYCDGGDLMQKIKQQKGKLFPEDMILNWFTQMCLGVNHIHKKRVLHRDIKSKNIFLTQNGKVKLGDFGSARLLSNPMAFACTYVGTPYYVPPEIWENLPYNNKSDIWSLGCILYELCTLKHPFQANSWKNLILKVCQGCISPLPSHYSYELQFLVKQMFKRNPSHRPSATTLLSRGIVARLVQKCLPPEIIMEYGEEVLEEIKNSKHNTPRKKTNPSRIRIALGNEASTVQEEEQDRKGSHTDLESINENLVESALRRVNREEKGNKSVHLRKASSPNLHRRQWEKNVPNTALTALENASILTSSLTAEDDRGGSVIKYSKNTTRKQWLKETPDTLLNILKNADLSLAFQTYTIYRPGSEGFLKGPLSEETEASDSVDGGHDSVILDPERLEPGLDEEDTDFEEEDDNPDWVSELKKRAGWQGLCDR", "source_text": "as §1"}, "NEK5": {"biological_target": "NEK5 (Homo sapiens, UniProt Q6P3R8)", "source_text": "as §1"}, "PFTK1": {"biological_target": "T7, PFTK1 (Homo sapiens, UniProt O94921)", "T7 construct": "gene CDK14", "source_text": "as §1"}, "PIK3C2B": {"biological_target": "PIK3C2B (Homo sapiens, UniProt O00750)", "source_text": "as §1"}, "PLK4": {"biological_target": "PLK4 (Homo sapiens, UniProt O00444)", "sequence (O00444 whole entry)": "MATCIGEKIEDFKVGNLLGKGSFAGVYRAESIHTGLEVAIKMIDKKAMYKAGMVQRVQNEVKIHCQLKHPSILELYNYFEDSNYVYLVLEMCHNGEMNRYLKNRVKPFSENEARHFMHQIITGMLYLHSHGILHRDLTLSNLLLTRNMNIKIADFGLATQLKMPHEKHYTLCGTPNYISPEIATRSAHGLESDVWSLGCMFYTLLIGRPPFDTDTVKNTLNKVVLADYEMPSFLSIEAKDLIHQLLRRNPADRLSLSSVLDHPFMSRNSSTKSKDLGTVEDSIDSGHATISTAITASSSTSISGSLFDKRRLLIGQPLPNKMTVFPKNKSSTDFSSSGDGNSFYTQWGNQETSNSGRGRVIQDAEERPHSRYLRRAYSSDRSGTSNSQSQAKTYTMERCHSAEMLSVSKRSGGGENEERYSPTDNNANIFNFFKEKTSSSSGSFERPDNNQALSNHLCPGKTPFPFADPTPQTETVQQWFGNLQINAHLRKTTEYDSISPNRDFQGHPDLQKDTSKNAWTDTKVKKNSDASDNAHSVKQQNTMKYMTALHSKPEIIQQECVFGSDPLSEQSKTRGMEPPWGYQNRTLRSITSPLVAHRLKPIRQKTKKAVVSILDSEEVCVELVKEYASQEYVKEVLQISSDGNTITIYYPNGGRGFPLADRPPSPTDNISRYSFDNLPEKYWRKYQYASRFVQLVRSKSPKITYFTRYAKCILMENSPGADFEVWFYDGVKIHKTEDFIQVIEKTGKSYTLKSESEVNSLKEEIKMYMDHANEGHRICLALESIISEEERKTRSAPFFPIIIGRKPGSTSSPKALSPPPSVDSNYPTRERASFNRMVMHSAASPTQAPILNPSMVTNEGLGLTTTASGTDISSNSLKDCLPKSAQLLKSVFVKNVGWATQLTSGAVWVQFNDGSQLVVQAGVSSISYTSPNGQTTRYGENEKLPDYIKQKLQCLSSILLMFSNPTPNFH", "source_text": "as §1"}, "PRKX": {"biological_target": "PRKX (Homo sapiens, UniProt P51817)", "source_text": "as §1"}, "RIPK4": {"biological_target": "RIPK4 (Homo sapiens, UniProt P57078)", "source_text": "as §1"}, "[1]": {"biological_target": "T8, RPS6KA5(Kin.Dom.2-C-terminal) (Homo sapiens, UniProt O75582)", "T8 construct": "Kin.Dom.2-C-terminal", "source_text": "as §1"}, "STK36": {"biological_target": "STK36 (Homo sapiens, UniProt Q9NRP7)", "source_text": "as §1"}, "TRKC": {"biological_target": "T9, TRKC (Homo sapiens, UniProt Q16288)", "T9 construct": "gene NTRK3", "source_text": "as §1"}, "p38-beta": {"biological_target": "T10, p38-beta (Homo sapiens, UniProt Q15759)", "T10 construct": "gene MAPK11", "source_text": "as §1"}}, "data": [{"smiles": "Cn1c(=O)[nH]c2ccc(-c3cccc(C(=O)NC4CCn5ccnc5C4)c3)cc21", "note": "(stereo not shown) [Z36-MP5]", "values": [{"measurement": "remaining binding at 1 µM", "setting": "CLK2", "result": 90, "unit": "%"}, {"measurement": "remaining binding at 1 µM", "setting": "DRAK2", "result": 79, "unit": "%"}, {"measurement": "remaining binding at 1 µM", "setting": "EGFR(L858R)", "result": 99, "unit": "%"}, {"measurement": "remaining binding at 1 µM", "setting": "ERBB3", "result": 100, "unit": "%"}, {"measurement": "remaining binding at 1 µM", "setting": "ERK3", "result": 90, "unit": "%"}, {"measurement": "remaining binding at 1 µM", "setting": "HIPK1", "result": 100, "unit": "%"}, {"measurement": "remaining binding at 1 µM", "setting": "KIT(D816H)", "result": 78, "unit": "%"}, {"measurement": "remaining binding at 1 µM", "setting": "LZK", "result": 63, "unit": "%"}, {"measurement": "remaining binding at 1 µM", "setting": "MAP4K4", "result": 67, "unit": "%"}, {"measurement": "remaining binding at 1 µM", "setting": "MARK2", "result": 100, "unit": "%"}, {"measurement": "remaining binding at 1 µM", "setting": "MEK2", "result": 58, "unit": "%"}, {"measurement": "remaining binding at 1 µM", "setting": "NDR1", "result": 81, "unit": "%"}, {"measurement": "remaining binding at 1 µM", "setting": "NDR2", "result": 74, "unit": "%"}, {"measurement": "remaining binding at 1 µM", "setting": "NEK11", "result": 33, "unit": "%"}, {"measurement": "remaining binding at 1 µM", "setting": "NEK3", "result": 50, "unit": "%"}, {"measurement": "remaining binding at 1 µM", "setting": "NEK5", "result": 90, "unit": "%"}, {"measurement": "remaining binding at 1 µM", "setting": "PFTK1", "result": 98, "unit": "%"}, {"measurement": "remaining binding at 1 µM", "setting": "PIK3C2B", "result": 87, "unit": "%"}, {"measurement": "remaining binding at 1 µM", "setting": "PLK4", "result": 31, "unit": "%"}, {"measurement": "remaining binding at 1 µM", "setting": "PRKX", "result": 38, "unit": "%"}, {"measurement": "remaining binding at 1 µM", "setting": "RIPK4", "result": 99, "unit": "%"}, {"measurement": "remaining binding at 1 µM", "setting": "[1]", "result": 51, "unit": "%"}, {"measurement": "remaining binding at 1 µM", "setting": "STK36", "result": 77, "unit": "%"}, {"measurement": "remaining binding at 1 µM", "setting": "TRKC", "result": 53, "unit": "%"}, {"measurement": "remaining binding at 1 µM", "setting": "p38-beta", "result": 87, "unit": "%"}]}]}
